According to publication PMC4303209, “A novel phosphatidylinositol 3-kinase (PI3K) inhibitor directs a potent FOXO-dependent, p53-independent cell cycle arrest phenotype characterized by the differential induction of a subset of FOXO-regulated genes” (Breast Cancer Research : BCR, 2014):

Test system: MCF-7 breast cancer cells
Experiment: Microarray gene expression analysis (Agilent whole human genome 4 x 44K; compound vs DMSO, LIMMA log2 fold change)
Assay type: cell-based
Conditions: Apoptosis genes

Cn1ncc2c(N3CCOCC3)nc(-c3cccc(O)c3)nc21 [ETP-45658]
KALRN log2FC (Gene 8997): 0.091 | SOCS3 log2FC (Gene 9021): -1.264 | BRSK2 log2FC (Gene 9024): -0.150 | UBE2M log2FC (Gene 9040): -0.487 | SART1 log2FC (Gene 9092): -0.304 | DNAJA3 log2FC (Gene 9093): 0.296 | RABEP1 log2FC (Gene 9135): 0.616 | ARHGEF2 log2FC (Gene 9181): -0.734 | DEDD log2FC (Gene 9191): -0.182 | AURKB log2FC (Gene 9212): -0.212 | FAIM3 log2FC (Gene 9214): -0.667 | DLG5 log2FC (Gene 9231): -0.344 | PNMA1 log2FC (Gene 9240): 0.386 | NOG log2FC (Gene 9241): -0.420 | CRLF1 log2FC (Gene 9244): -0.116 | STK17B log2FC (Gene 9262): 0.460 | STK17A log2FC (Gene 9263): 0.274 | BCL7C log2FC (Gene 9274): -0.273 | TAOK2 log2FC (Gene 9344): -0.736 | SLIT2 log2FC (Gene 9353): 0.124 | SLC9A3R1 log2FC (Gene 9368): -0.593 | TJP2 log2FC (Gene 9414): 0.142 | NTN1 log2FC (Gene 9423): -0.272 | ITM2B log2FC (Gene 9445): 0.364 | AIM2 log2FC (Gene 9447): -0.111 | LY86 log2FC (Gene 9450): -0.441 | EIF2AK3 log2FC (Gene 9451): 0.631 | HAND2 log2FC (Gene 9464): -0.617 | ATG5 log2FC (Gene 9474): -0.569 | ROCK2 log2FC (Gene 9475): 0.291 | MAPK8IP1 log2FC (Gene 9479): -0.208 | SLC25A27 log2FC (Gene 9481): 0.161 | PSMF1 log2FC (Gene 9491): -0.383 | LITAF log2FC (Gene 9516): -0.463 | EEF1E1 log2FC (Gene 9521): 0.192 | BAG4 log2FC (Gene 9530): 0.066 | BAG3 log2FC (Gene 9531): -0.998 | EI24 log2FC (Gene 9538): -0.507 | BCAR1 log2FC (Gene 9564): -0.597 | BRE log2FC (Gene 9577): -0.322 | RNF7 log2FC (Gene 9616): -0.220 | TRAF4 log2FC (Gene 9618): -0.910 | AATK log2FC (Gene 9625): 1.732 | IKBKE log2FC (Gene 9641): -0.592 | PPM1F log2FC (Gene 9647): -0.513 | RAPGEF2 log2FC (Gene 9693): 0.863 | ESPL1 log2FC (Gene 9700): 0.453 | HERPUD1 log2FC (Gene 9709): 0.217 | SLK log2FC (Gene 9748): 0.938 | BCLAF1 log2FC (Gene 9774): 0.733 | KIAA0141 log2FC (Gene 9812): 0.422 | RB1CC1 log2FC (Gene 9821): 1.457 | ARHGEF11 log2FC (Gene 9826): -0.194 | ARHGEF17 log2FC (Gene 9828): 0.130 | MELK log2FC (Gene 9833): 0.433 | PSMD6 log2FC (Gene 9861): 0.300 | ARNT2 log2FC (Gene 9915): -0.108 | THOC1 log2FC (Gene 9984): 0.606 | CASP8AP2 log2FC (Gene 9994): 0.813 | SRA1 log2FC (Gene 10011): -0.924 | PDCD6IP log2FC (Gene 10015): 0.516 | PDCD6 log2FC (Gene 10016): -0.540 | BCL2L11 log2FC (Gene 10018): 0.145 | PARP2 log2FC (Gene 10038): 0.419 | DNAJB6 log2FC (Gene 10049): 0.317 | DNM1L log2FC (Gene 10059): 0.674 | PDCD7 log2FC (Gene 10081): 0.102 | PPIF log2FC (Gene 10105): -1.006 | FEM1B log2FC (Gene 10116): -0.258 | BCAP31 log2FC (Gene 10134): -0.393 | RBM5 log2FC (Gene 10181): 0.716 | RNF41 log2FC (Gene 10193): 0.235 | PSME3 log2FC (Gene 10197): -1.314 | DHRS2 log2FC (Gene 10202): 0.711 | TOPORS log2FC (Gene 10210): 0.700 | PSMD14 log2FC (Gene 10213): 0.447 | SPRY2 log2FC (Gene 10253): -1.064 | NET1 log2FC (Gene 10276): 0.571 | UBE4B log2FC (Gene 10277): -0.652 | SAP18 log2FC (Gene 10284): 0.262 | TRAIP log2FC (Gene 10293): 0.639 | MAEA log2FC (Gene 10296): -0.219 | PAK4 log2FC (Gene 10298): -0.601 | RTN3 log2FC (Gene 10313): -0.201 | CITED2 log2FC (Gene 10370): 2.261 | SEMA3A log2FC (Gene 10371): 0.054 | DLC1 log2FC (Gene 10395): -0.918 | GNB2L1 log2FC (Gene 10399): -0.052 | YAP1 log2FC (Gene 10413): 0.283 | CFDP1 log2FC (Gene 10428): 0.559 | C1D log2FC (Gene 10438): 0.287 | ACAA2 log2FC (Gene 10449): 0.222 | VAV3 log2FC (Gene 10451): 2.242 | STK25 log2FC (Gene 10494): 0.126 | SEMA4D log2FC (Gene 10507): 0.201 | MYBBP1A log2FC (Gene 10514): -0.538 | CIB1 log2FC (Gene 10519): -0.090 | ATG7 log2FC (Gene 10533): -0.393 | HTATIP2 log2FC (Gene 10553): 0.241 | ERN2 log2FC (Gene 10595): -0.829 | RBCK1 log2FC (Gene 10616): -0.413 | STAMBP log2FC (Gene 10617): 0.425 | IVNS1ABP log2FC (Gene 10625): 0.124 | TXNIP log2FC (Gene 10628): 2.131 | RRAGA log2FC (Gene 10670): -0.331 | PNMA2 log2FC (Gene 10687): -0.069 | CHL1 log2FC (Gene 10752): 0.057 | NES log2FC (Gene 10763): -0.458 | PLK2 log2FC (Gene 10769): -0.887 | ZMYND11 log2FC (Gene 10771): 0.411 | NEK6 log2FC (Gene 10783): -0.620 | NCKAP1 log2FC (Gene 10787): 0.702 | ZNF268 log2FC (Gene 10795): 0.304 | PPP1R13L log2FC (Gene 10848): 0.207 | LILRB1 log2FC (Gene 10859): -0.164 | MRPS30 log2FC (Gene 10884): 0.391 | PROKR1 log2FC (Gene 10887): -0.235 | PPARGC1A log2FC (Gene 10891): 0.117 | MALT1 log2FC (Gene 10892): -0.183 | JTB log2FC (Gene 10899): -0.124 | BLCAP log2FC (Gene 10904): -0.662 | EDAR log2FC (Gene 10913): -0.358 | RNPS1 log2FC (Gene 10921): -0.273 | FASTK log2FC (Gene 10922): -0.423 | PRDX3 log2FC (Gene 10935): 0.630 | MLLT11 log2FC (Gene 10962): -0.777 | YWHAQ log2FC (Gene 10971): 0.450 | IL24 log2FC (Gene 11009): -0.211 | RIPK3 log2FC (Gene 11035): 0.042 | PIM2 log2FC (Gene 11040): -0.863 | DIDO1 log2FC (Gene 11083): -0.773 | FAF1 log2FC (Gene 11124): 0.204 | CAPN10 log2FC (Gene 11132): -0.095 | NISCH log2FC (Gene 11188): 0.948 | CHEK2 log2FC (Gene 11200): 0.312 | AKAP13 log2FC (Gene 11214): -0.384 | DDX20 log2FC (Gene 11218): 0.500 | PDCD10 log2FC (Gene 11235): 0.541 | GABARAP log2FC (Gene 11337): 0.197 | ATF5 log2FC (Gene 22809): -1.275 | PHLDA1 log2FC (Gene 22822): -2.095 | CARD8 log2FC (Gene 22900): 0.190 | SNW1 log2FC (Gene 22938): 0.686 | TRIM32 log2FC (Gene 22954): -0.374 | ACIN1 log2FC (Gene 22985): -0.352 | TRIM35 log2FC (Gene 23087): 0.473 | KIF1B log2FC (Gene 23095): 0.166 | PSME4 log2FC (Gene 23198): 0.174 | ARHGEF9 log2FC (Gene 23229): 0.258 | PACS2 log2FC (Gene 23241): -0.307 | MCF2L log2FC (Gene 23263): 0.118 | TRIM2 log2FC (Gene 23321): 1.078 | ARHGEF12 log2FC (Gene 23365): 0.173 | PPP1R13B log2FC (Gene 23368): 0.098 | NCSTN log2FC (Gene 23385): 0.216 | ADNP log2FC (Gene 23394): 0.193 | SIRT1 log2FC (Gene 23411): 1.263
